Experimental data from patent US7053043B1, “Pharmaceutical compositions comprising synthetic peptide copolymers and methods for preventing and treating GVHD and HVGD” (Yeda Research and Development Co.Ltd., priority 1999, dated 2006).

Tests used:
[1] = tested on: skin graft rejection; test: Skin graft transplantation model for HVGD; format: in vivo, mice; details: B10.D2 → BALB/c, FK506 300 μg/day ip, 7 injections from day −2
Description: Recipient mice were dorsally transplanted with circular pieces of donor skin. Mice were inspected daily. Grafts were considered rejected when no viable donor epidermis remained. The results are expressed in mean survival time (MST). P values were obtained by analysis of variance (ANOVA).
[…] The first Cop 1 treatment on day −7 was injected sc in ICFA as a depot dose. Control mice were treated daily with PBS alone and PBS with ICFA on day −7 before transplantation.
Grafts were inspected daily. Rejection was considered positive when no viable donor epidermis remained. […]

[2] = tested on: function of transplanted thyroids; test: Thyroid graft assay for HVGD (125I absorption of thyroid transplanted in kidney capsule); format: in vivo, mice; details: B10.D2 → BALB/c, FK506 300 μg
Description: In this transplantation model for HVGD, thyroid glands from donor mice were transplanted in the kidney's capsules of recipient mice. One week later the transplanted mice were injected with ^125I, and the radioactivity of each kidney (the recipient or the untransplanted kidney) was measured after 20 hours. Δcpm was calculated by subtracting the ^125I absorbance of the untransplanted kidneys from the ^125I absorbance of the recipient kidneys in the same treatment. The mean function index (MFI) for treatment was calculated by dividing the mean Δcpm for the tested (Copolymer 1) treatment by the mean Δcpm for the PBS treatment. P values were obtained by the t test. This assay indicates objectively and quantitatively not only the graft survival, but also the function (iodine absorbance) of the transplanted thyroid tissue (Isakov et al., 1979).
The transplanted mice were treated daily with Copolymer 1 600 μg/day (300 μg ip+300 μg sc) in PBS solution, starting 7 days before transplantation. The first Cop 1 treatment on day −7 was injected sc in ICFA as a depot dose. Control mice were treated daily with PBS alone and PBS with ICFA on day −7 before transplantation.
To test the effect of Copolymer 1 treatment on the function of transplanted thyroids in the B10.D2→BALB/c model, thyroid glands from donors B10.D2 were transplanted in the kidney's capsules of BALB/c mice. After one week the transplanted mice were injected with ^125I, and the radioactivity of each kidney was measured 20 hours later. cpm was calculated by subtracting the ^125I absorbance of the untransplanted kidneys from the ^125I absorbance of the recipient kidneys in the same treatment. The mean function index (MFI) for each treatment was calculated by dividing the mean ^125I absorbance of (transplanted kidney-untransplanted kidney) in the tested treatment by the mean ^125I absorbance of (transplanted kidney-untransplanted kidney) in the PBS treatment, as follows: […]

[3] = tested on: T cell proliferation in MHC-disparate mixed lymphocyte cultures; test: Mixed lymphocyte cultures across major histocompatibility barriers, six MHC-disparate strain combinations; format: cell-based, mice; details: 10–100 μg/well, all concentrations tested
Description: (§1) Responder cells for MLR reactions across major histocompatibility barriers were harvested from spleen of non-immunized mice while responder cells for MLR across minor histocompatibility barriers were harvested from mice which were preimmunized with irradiated (30 Gy) 50×10^6 stimulator spleen cells 21 days before. Responder cells (5×10^5 spleen cells per well) were tested for their proliferative response by plating with different amounts (2.5 to 10×10^5) of irradiated stimulator cells, in presence or absence of various peptide inhibitors (10–100 μg per well). Cultures were set up in 200 μl media containing 10% FCS in flat-bottom microtiter plates. After 4 days of incubation, cultures were pulsed with 1 μCi of [^3H]thymidine for an additional 16 hours. Results are represented as mean counts per minute (cpm) thymidine incorporation from triplicate cultures.

[4] = tested on: GVHD in B10.D2 → BALB/c recipients; test: Murine lethal GVHD model after bone marrow transplantation, B10.D2/nSnJ→BALB/c; format: in vivo, mice; details: for overall incidence of GVHD: 600 μg per injection (ip + sc), Cop 1 Batch I
Description: The murine GVHD model of B10.D2/nSnJ→BALB/c mice (both H-2^d) across minor histocompatibility barriers, was selected since it is similar to the MHC matched bone marrow transplantation in humans. For the induction of GVHD, 10×10^6 bone marrow and 100×10^6 spleen cells from B10.D2 mice were injected into lethally irradiated (8.0 Gy) BALB/c recipients. […] Recipient mice were 12–13 weeks at the time of transplantation.
Based on previous studies with Cop 1 in EAE (Sela et al., 1990; Teitelbaum et al., 1971; Teitelbaum et al., 1973) and class II-binding competitor peptides in GVHD (Schlegel et al., 1994), the dosage of 600 μg per injection was selected, half of which was administered intraperitoneally (ip), whereas the other half was given subcutaneously (sc). Treatment of BALB/c recipient mice was initiated on day −1, followed by daily injections for the first five weeks starting on day 0 after transplantation. The frequency of injections was tapered to three times per week for the subsequent two weeks and to two times per week for another two weeks and then discontinued. Throughout the experiment, copolymers and controls were administered once a week with incomplete Freund's adjuvant (IFA) ip as a depot dose (Schlegel et al., 1994). Treatment was discontinued 9 weeks after transplantation.
Mice were followed up daily for 140 days after bone marrow transplantation for signs of GVHD. Disease severity was assessed by mortality, loss of body weight, and by the extent of macroscopic skin involvement scored on a cumulative scale (from min O— max 8): head 1, neck 1, back (1/3, 2/3, 3/3) 1–3, front (1/3, 2/3, 3/3) 1–3. Skin biopsies were examined as previously described (Schlegel et al., 1994).
(ii) Effect of Copolymer 1 Treatment on the Incidence, Onset and Severity of GVHD. […] For the first five weeks after transplant mice were injected daily as outlined in Materials and Methods, followed by a tapering schedule over an additional four weeks.
(iii) Effect of Copolymer 1 treatment on survival. […]

[5] = tested on: proliferation of B10.PL (H-2u) responder cells to PL/J stimulator cells; test: Mixed lymphocyte reaction (MLR) across minor histocompatibility barriers; format: cell-based, mice; details: 20 μg/well, Cop 1 Batch I, 1:1 ratio of responder to stimulator cells
Description: as §1
(§2) To investigate the feasibility of inhibition of MLR by Copolymer 1, an MLR system was developed in which Copolymer 1 was tested for its ability to inhibit the proliferation of B10.PL (H-2^u) responder cells to stimulator cells of either the same (PL/J) or different (BALB/c) H-2 haplotype. For comparison, the inhibitory MBP Ac 1-11[4A], MBP 35-47, a combination of Ac 1-1[4A]+MBP 35-47, MBP 89-101 and KM-core peptides, described in Schlegel et al. (1994), were used in the MLR experiments.
(§3) The inhibition obtained by Copolymer 1 was similar (in response to minor histocompatibility antigen) or even higher (in response to major histocompatibility antigen) than the inhibition obtained with the combination of the two synthetic peptides Ac 1-11[4A] and MBP 35-47, which specifically bind to the class II molecules I-A^u and the I-E^u, respectively. The molar efficiency of Copolymer 1 of M.W. 6000 is even higher since the molecular weight of the synthetic peptides is 4–5 fold lower.

[6] = tested on: proliferation of B10.PL (H-2u) responder cells to BALB/c stimulator cells; test: Mixed lymphocyte reaction (MLR) across major histocompatibility barriers, B10.PL vs BALB/c; format: cell-based, mice; details: 20 μg/well, Cop 1 Batch I, 1:1 ratio of responder to stimulator cells
Description: as §1, §2, §3

Compound: C=CC[C@@H]1/C=C(\C)C[C@H](C)C[C@H](OC)[C@H]2O[C@@](O)(C(=O)C(=O)N3CCCC[C@H]3C(=O)O[C@H](/C(C)=C/[C@@H]3CC[C@@H](O)[C@H](OC)C3)[C@H](C)[C@@H](O)CC1=O)[C@H](C)C[C@@H]2OC [FK506]
- MST ± SD (Mean Survival Time of skin graft) [1]: 21.2 ± 4.3 days
- MST ± SD (Mean Survival Time of skin graft) ([1]; listed as FK 506): 21.2 days
- Mean 125I Absorption, Transplanted Kidney (cpm) [2]: 3117 cpm
- Mean 125I Absorption, Untransplanted Kidney (cpm) [2]: 693 cpm
- cpm (transplanted minus untransplanted kidney) [2]: 2424 cpm
- MFI (mean function index) ([2]; folds over PBS treatment): 3.1

Compound: Hen egg-white lysozyme [HEL]
- inhibitory effect on the MLC [3]: no or only minimal inhibitory effect
- long-term survival from lethal graft-versus-host disease ([4]; 600 μg per injection): did not improve long-term survival
- overall incidence of GVHD ([4]; day 30 after transplant): 100%
- overall incidence of GVHD ([4]; day 70 after transplant): 100%
- median onset of GVHD ([4]; days after transplant, 600 μg per injection): 22 days

Compound: KM-core: KMKMVAAHAKMKM (SEQ ID NO:3), based on the antigenic core sequence of ovalbumin 323–339 (KMKMVHAAHAKMKM)
- inhibition of MLR [5]: did not induce any significant effect
- inhibition of MLR [6]: did not induce any significant effect

Compound: MBP 89-101: peptide VHFFKNIVTPRTP (SEQ ID NO:4) of myelin basic protein
- inhibition of MLR [5]: did not induce any significant effect
- inhibition of MLR [6]: did not induce any significant effect
